The text below walks through data of article PMC10386649, “New Acetamide-Sulfonamide-Containing Scaffolds: Antiurease Activity Screening, Structure-Activity Relationship, Kinetics Mechanism, Molecular Docking, and MD Simulation Studies” (Molecules, 2023).

One series has as its target jack bean urease (Canavalia ensiformis, UniProt P07374). The series is described as follows: biochemical. Type of series: biochemical. The settings on record: for % Inhibition (urease): value in parentheses beside IC50; for urease inhibition (in words): qualitative statement.
For a further series, the target named is urease (Canavalia ensiformis, UniProt P07374). The series is described as follows: biochemical. It counts as biochemical, jack bean. The settings on record: for Mode of Inhibition: Lineweaver–Burk plot, inhibitor 0–20 µM, urea 0.5–4.0 mM; for Vmax (app): intercept, the maximum rate at 20 µM of inhibitor concentration.
Sequence of urease (P07374 whole entry, looked up): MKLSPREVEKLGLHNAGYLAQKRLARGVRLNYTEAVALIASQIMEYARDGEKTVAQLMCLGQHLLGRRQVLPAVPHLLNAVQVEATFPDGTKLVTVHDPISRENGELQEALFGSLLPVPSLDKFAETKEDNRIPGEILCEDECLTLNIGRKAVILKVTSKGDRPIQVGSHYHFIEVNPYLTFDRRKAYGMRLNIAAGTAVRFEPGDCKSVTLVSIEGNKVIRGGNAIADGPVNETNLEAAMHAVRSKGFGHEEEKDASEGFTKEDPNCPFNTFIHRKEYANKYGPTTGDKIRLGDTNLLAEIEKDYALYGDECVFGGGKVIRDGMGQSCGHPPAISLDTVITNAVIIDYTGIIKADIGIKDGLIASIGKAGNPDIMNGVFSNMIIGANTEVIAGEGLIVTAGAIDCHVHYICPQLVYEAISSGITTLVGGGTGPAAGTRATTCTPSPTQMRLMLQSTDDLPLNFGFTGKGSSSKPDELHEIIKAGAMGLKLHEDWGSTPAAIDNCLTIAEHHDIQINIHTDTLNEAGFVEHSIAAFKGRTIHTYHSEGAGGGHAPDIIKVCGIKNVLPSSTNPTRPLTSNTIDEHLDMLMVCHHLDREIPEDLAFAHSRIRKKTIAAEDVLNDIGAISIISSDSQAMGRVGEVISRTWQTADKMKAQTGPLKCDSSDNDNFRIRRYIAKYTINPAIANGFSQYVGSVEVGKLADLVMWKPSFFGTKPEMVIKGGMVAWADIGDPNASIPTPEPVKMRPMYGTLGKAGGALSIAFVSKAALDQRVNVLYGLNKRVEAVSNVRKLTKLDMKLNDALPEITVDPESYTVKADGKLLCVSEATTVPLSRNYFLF

Where two headings read alike, the source gives them in different places.

Sequence of jack bean urease (P07374 whole entry, looked up): as above
Protocol for jack bean urease: Briefly, DMSO was used to dissolve the synthesized conjugates (inhibitors, 250–0.49 µM) and the reference urease inhibitor (thiourea). Each falcon tube contained the respective inhibitor (20 µL), buffer (K2HPO4, 100 µL, 50 mM, pH = 6.8), and jack bean urease (20 µL); each tube was mixed well; and the mixtures were incubated for 30 min at 37 °C. Each tube received 400 µL of urea (20 mM) as a substrate, which was then incubated for 10 min at the same temperature. Afterward, each tube received 400 µL of phenol reagent and 750 µL of alkali reagent containing 0.1% active chlorine and was left at 37 °C for 50 min. Following the use of a spectrophotometer (Labdex, LX210DS, London, UK) to measure absorbance of the mixture in each tube at 595 nm, Equation (1) below was used to compute the percentage of urease inhibition: (1) % Urease inhibition=1−T/C×100 where, T and C are the absorbance of each well containing inhibitor and blank, respectively. The results are presented as mean ± SEM. Using a regression equation where 50% inhibition was seen, the IC50 values of each inhibitor were determined.

Consider `CC(C(=O)Nc1ccc(S(N)(=O)=O)cc1)c1ccc(-c2ccccc2)c(F)c1` (stereo not drawn) [Conjugate 12, 2-(2-Fluoro-[1,1′-biphenyl]-4-yl)-N-(4-sulfamoylphenyl)propanamide], for which the melting point was 147 to 150 °C. On jack bean urease, 24.92 ± 0.24 µM corresponded to half-maximal inhibition (IC50). Besides, the “% Inhibition (urease)” value at jack bean urease (jack bean urease) turned out to be 82.1%.
On to `NC(N)=S` [Thiourea, reference compound], for which the IC50 at jack bean urease (jack bean urease, urea substrate, pH 6.8, 37 °C, mean ± SEM, read-out: IC50 (µM), Mean ± SEM) amounted to 22.6 ± 0.23 µM. The “% Inhibition (urease)” value on jack bean urease (jack bean urease) came to 92.3%. On urease, the “Mode of Inhibition” value is listed as “Competitive” and the “Vmax (app)” value is recorded as 18.61 µM/min. Moreover, the Ki at urease (from secondary Lineweaver–Burk plots, read-out: Ki (inhibition constant)) stood at 18.2 µM. Besides, the Michaelis constant (Km) at urease (slope of the line (Michaelis constant) at 20 µM of inhibitor concentration, read-out: Km (app)) was 2180 µM.
On to `Cc1cc(NS(=O)(=O)c2ccc(NC(=O)C(C)c3ccc(-c4ccccc4)c(F)c3)cc2)no1` (stereo not drawn) [Conjugate 17, 2-(2-Fluoro-[1,1′-biphenyl]-4-yl)-N-(4-(N-(5-methylisoxazol-3-yl)sulfamoyl)phenyl)propanamide], for which, at jack bean urease, half-maximal inhibition (IC50) was put at 13.39 ± 0.11 µM. In addition, the “% Inhibition (urease)” value on jack bean urease (jack bean urease) is listed as 86.1%. Further, on urease, the affinity corresponds to a Ki of 10.4 µM, the “Mode of Inhibition” value is reported as “Competitive” and the “Vmax (app)” value was 1.56 µM/min.
In the case of `CC(C(=O)Nc1ccc(S(=O)(=O)Nc2nccs2)cc1)c1ccc(-c2ccccc2)c(F)c1` (stereo not drawn) [Conjugate 14, 2-(2-Fluoro-[1,1′-biphenyl]-4-yl)-N-(4-(N-(thiazol-2-yl)sulfamoyl)phenyl)propanamide], the melting point is 137 to 140 °C. Also, at jack bean urease, inhibition was half-maximal at 63.4 ± 1.15 µM (IC50) and the “urease inhibition (in words)” value was “moderate inhibition”. Also, the “% Inhibition (urease)” value at jack bean urease (jack bean urease) was found to be 60.4%.
On to `CC(C)Cc1ccc(C(C)C(=O)Nc2ccc(S(=O)(=O)Nc3nccs3)cc2)cc1` (stereo not drawn) [Conjugate 6, 2-(4-Isobutylphenyl)-N-(4-(N-(thiazol-2-yl)sulfamoyl)phenyl)propanamide], for which the melting point is 184 to 185 °C. Further, half-maximal inhibition against jack bean urease (IC50) was put at 9.95 ± 0.14 µM. Moreover, on jack bean urease (jack bean urease), the “% Inhibition (urease)” value is 90.6%. Also, at urease, the Ki is 0.17 µM, the “Mode of Inhibition” value is “Competitive” and the “Vmax (app)” value turned out to be 1.39 µM/min.
`Cc1ccnc(NS(=O)(=O)c2ccc(NC(=O)C(C)c3ccc(CC(C)C)cc3)cc2)n1` (stereo not drawn) [Conjugate 8, 2-(4-Isobutylphenyl)-N-(4-(N-(4-methylpyrimidin-2yl)sulfamoyl)phenyl)propanamide] registered a melting point of 152 to 154 °C. In addition, the 50% inhibitory concentration (IC50) against jack bean urease was found to be 12.4 ± 0.54 µM. Also, the “% Inhibition (urease)” value on jack bean urease (jack bean urease) amounted to 87.7%. In addition, at urease, the affinity corresponds to a Ki of 3.01 µM, the “Mode of Inhibition” value is recorded as “Mixed” and the “Vmax (app)” value is given as 3.0 µM/min.
Consider `Cc1noc(NS(=O)(=O)c2ccc(NC(=O)C(C)c3ccc(CC(C)C)cc3)cc2)c1C` (stereo not drawn) [Conjugate 5, N-(4-(N-(3,4-Dimethylisoxazol-5-yl)sulfamoyl)phenyl)-2-(4-isobutylphenyl)propanamide], for which the IC50 on jack bean urease came to 23.3 ± 0.41 µM. Also, on jack bean urease (jack bean urease), the “% Inhibition (urease)” value came out at 84.0%.
`CC(C)Cc1ccc(C(C)C(=O)Nc2ccc(S(=O)(=O)NC(=N)N)cc2)cc1` (stereo not drawn) [Conjugate 11, N-(4-(N-Carbamimidoylsulfamoyl)phenyl)-2-(4-isobutylphenyl)propanamide]: the melting point was 138 to 139 °C. On jack bean urease, half-maximal inhibition (IC50) was put at 44.5 ± 1.41 µM and the “urease inhibition (in words)” value is given as “moderate inhibition”. On jack bean urease (jack bean urease), the “% Inhibition (urease)” value was 78.7%.
For the compound `CC(C)Cc1ccc(C(C)C(=O)Nc2ccc(S(N)(=O)=O)cc2)cc1` (stereo not drawn) [Conjugate 4, 2-(4-Isobutylphenyl)-N-(4-sulfamoylphenyl)propanamide], the melting point was in the range of 147 to 150 °C. Further, the 50% inhibitory concentration (IC50) against jack bean urease was 14.26 ± 0.14 µM. The “% Inhibition (urease)” value at jack bean urease (jack bean urease) amounted to 84.2%. In addition, on urease, the affinity corresponds to a Ki of 8.2 µM, the “Mode of Inhibition” value was “Mixed” and the “Vmax (app)” value worked out at 3.64 µM/min.
Regarding `CC(C(=O)Nc1ccc(S(=O)(=O)Nc2ncccn2)cc1)c1ccc(-c2ccccc2)c(F)c1` (stereo not drawn) [Conjugate 15, 2-(2-Fluoro-[1,1′-biphenyl]-4-yl)-N-(4-(N-(pyrimidin-2-yl)sulfamoyl)phenyl)propanamide], the melting point fell in the range of 155 to 158 °C. Further, on jack bean urease, the IC50 came out at 16.7 ± 0.23 µM. At jack bean urease (jack bean urease), the “% Inhibition (urease)” value is given as 84.1%. On urease, the Ki worked out at 7.95 µM, the “Mode of Inhibition” value was “Competitive” and the “Vmax (app)” value is reported as 1.89 µM/min.
On to `CC(=O)NS(=O)(=O)c1ccc(NC(=O)C(C)c2ccc(CC(C)C)cc2)cc1` (stereo not drawn) [Conjugate 10, N-(4-(N-Acetylsulfamoyl)phenyl)-2-(4-isobutylphenyl)propanamide], for which the melting point was 152 to 155 °C. The compound further showed an IC50 on jack bean urease of 10.3 ± 0.11 µM. Moreover, the “% Inhibition (urease)” value at jack bean urease (jack bean urease) was determined as 88.9%. Besides, at urease, the inhibitory constant (Ki) was 2.62 µM, the “Mode of Inhibition” value is “Mixed” and the “Vmax (app)” value is given as 1.04 µM/min.
In the case of `Cc1ccnc(NS(=O)(=O)c2ccc(NC(=O)C(C)c3ccc(-c4ccccc4)c(F)c3)cc2)n1` (stereo not drawn) [Conjugate 16, 2-(2-Fluoro-[1,1′-biphenyl]-4-yl)-N-(4-(N-(4-methylpyrimidin-2-yl)sulfamoyl)phenyl)propanamide], the midpoint of inhibition against jack bean urease, the IC50, lay at 17.5 ± 0.76 µM. Also, the “% Inhibition (urease)” value on jack bean urease (jack bean urease) was determined as 86.1%. Further, at urease, the inhibition constant (Ki) stood at 1.3 µM, the “Mode of Inhibition” value is on record as “Mixed” and the “Vmax (app)” value was determined as 1.01 µM/min.
Compound `CC(C)Cc1ccc(C(C)C(=O)Nc2ccc(S(=O)(=O)Nc3ncccn3)cc2)cc1` (stereo not drawn) [Conjugate 7, 2-(4-Isobutylphenyl)-N-(4-(N-(pyrimidin-2-yl)sulfamoyl)phenyl)propanamide] came in with a melting point of 171 to 173 °C. Further, at jack bean urease, the IC50 stood at 50.2 ± 1.24 µM and the “urease inhibition (in words)” value is reported as “moderate inhibition”. The “% Inhibition (urease)” value on jack bean urease (jack bean urease) came to 71.6%.
As to `CC(=O)NS(=O)(=O)c1ccc(NC(=O)C(C)c2ccc(-c3ccccc3)c(F)c2)cc1` (stereo not drawn) [Conjugate 18, N-(4-(N-Acetylsulfamoyl)phenyl)-2-(2-fluoro-[1,1′-biphenyl]-4-yl)propanamide], the melting point lay within 187 to 190 °C. For the same compound, the IC50 against jack bean urease amounted to 14.8 ± 0.16 µM. For the same compound, the “% Inhibition (urease)” value on jack bean urease (jack bean urease) was found to be 87.1%. At urease, the Ki amounted to 4.11 µM, the “Mode of Inhibition” value is listed as “Mixed” and the “Vmax (app)” value came to 1.02 µM/min.
The compound `CC(C(=O)Nc1ccc(S(=O)(=O)NC(=N)N)cc1)c1ccc(-c2ccccc2)c(F)c1` (stereo not drawn) [Conjugate 19, N-(4-(N-Carbamimidoylsulfamoyl)phenyl)-2-(2-fluoro-[1,1′-biphenyl]-4-yl)propanamide] showed a melting point of 163 to 165 °C. In addition, half-maximal inhibition at jack bean urease (IC50) required 33.83 ± 0.18 µM. On jack bean urease (jack bean urease), the “% Inhibition (urease)” value came to 83.8%.
`Cc1noc(NS(=O)(=O)c2ccc(NC(=O)C(C)c3ccc(-c4ccccc4)c(F)c3)cc2)c1C` (stereo not drawn) [Conjugate 13, N-(4-(N-(3,4-Dimethylisoxazol-5-yl)sulfamoyl)phenyl)-2-(2-fluoro-[1,1′-biphenyl]-4-yl)propanamide] registered a melting point of 128 to 130 °C. At jack bean urease, this compound gave an IC50 of 35.3 ± 0.21 µM. In addition, the “% Inhibition (urease)” value on jack bean urease (jack bean urease) is 84.6%.
Consider `Cc1cc(NS(=O)(=O)c2ccc(NC(=O)C(C)c3ccc(CC(C)C)cc3)cc2)no1` (stereo not drawn) [Conjugate 9, 2-(4-Isobutylphenyl)-N-(4-(N-(5-methylisoxazol-3-yl)sulfamoyl)phenyl)propanamide], for which, on jack bean urease, the half-inhibitory concentration (IC50) was found to be 39.9 ± 1.17 µM and the “urease inhibition (in words)” value was “moderate inhibition”. Further, the “% Inhibition (urease)” value on jack bean urease (jack bean urease) is given as 76.7%.

What is called IC50 is the concentration needed to halve the response being measured. As usually defined, the melting point is the temperature, or range, at which the solid turns liquid. As a reminder, the Ki is the equilibrium dissociation constant of an inhibitor or competing ligand from its target. For orientation: Km means the concentration of substrate that gives half-maximal velocity.
